Data on 2 compounds can be found in US20230022796A1 (Merck Patent GmbH, priority 2019, published 2023).

For assay [1], the system named is CHO cell line producing mAb1. In words: Glycosylation profile (UPLC-MS of released glycans) of mAb1 from fed-batch. The class given is cell-based, Chinese hamster. Particulars: for reduction of the fucosylation compared to the control: mAb1, same concentration of both additives; for fucosylation level / incorporation of the fucose-analogue: mean of day 7, 10 and 12. The method, then:
(§1) Glycosylation patterns were analyzed by ultra-performance liquid chromatography coupled to a mass spectrometer (UPLC-MS). The purified antibody was denaturated and the glycans were released from the antibody by digestion with peptide N-glycosidase F (PNGase F) followed by labeling the glycans with the GlycoWorks™ RapiFluor-MS™ N-Glycan Kit according to the manufacturer protocol. For the analysis, an UPLC glycan column (2.1×150 mm) that separated the glycans according to their […] was used. The chromatography was performed at 45° C. using 50 mM ammonium formate (A), pH 4.4 solution and an acetonitrile (B) gradient. In detail, at the beginning the ratio of A:B was 20:80 (0 min) and changed to 27:73 at 3 min and 37:63 at 35 min at a flow rate of 0.5 ml/min. From 36.5 min to 39.5 min only A was used as mobile phase and the flow rate was reduced to 0.2 ml/min. Subsequently, the ratio was changed to 20% A:80% B and the flowrate was increased to 0.5 ml/min at 43.1 min until the end of the process at 55 min. The detection was performed by a fluorescence detector with an excitation wavelength of 265 nm and an emission wavelength of 425 nm. The identification of the glycan structures was performed by MS using positive electro spray ionization (ESI), which was calibrated every 30 s with a standard.
(§2) Four different clones of Chinese hamster ovary (CHO) cells expressing three different monoclonal antibodies (mAb) and a fusion protein were tested. Cells were cultivated in spin tubes between 14 and 20 days at 37° C., 5% CO2, and 80% humidity. As starting cell density, 3×10^5 cells/mL in 30 mL Cellvento®4CHO media (pH 7.0±0.1) was used for clone 1 and 2 producing mAb1 and mAb2, respectively (Cellvento® Platform). Cells were cultivated at an agitation of 320 rpm and were fed on day 3, 5, 10, 12 and 14 with 3% volume of Cellvento® 4Feed (v/v) and on day 7 with 6% (v/v) of the feed. Clone 3 and 4 producing mAb3 and a fusion protein were inoculated at the same cell density in 30 mL Ex-Cell® Advanced Media (pH 7.2±0.1) while agitation was set to 230 rpm (Ex-Cell® Platform). Clones 3 and 4 were fed with […] Advanced Feed (v/v) on day 3, 5, 7, 10, 12, 14 and 17. […] The pH of all Cellvento® feeds was adjusted to 7.0±0.1 and Ex-Cell® Feeds were adjusted to 8.5±0.1. The glucose level was maintained above 4 g/L by adding a specific amount of a 400 g/L glucose stock solution on demand to up to 6 g/L during the week and up to 13 g/L over the weekend. Glucose and titer were detected in the supernatant with the bioprocess analyzer CEDEX Bio HT (Roche, Mannheim, Germany).
(§3) To investigate the glycosylation profile during the fed-batch experiment samples were centrifugated and antibodies and Fc-fusion proteins were purified from the cell culture supernatant using protein A PhyTips® (PhyNexus Inc, San Jose, Calif.). Glycosylation patterns were analyzed as described by ultra-performance liquid chromatography coupled to a mass spectrometer (UPLC-MS) using the GlycoWorks™ RapiFluor-MS™ N-Glycan Kit.
(§4) Glycosylation profile on day 12 was visualized since harvest of recombinant produced proteins on day 12 is common. Quantification of the glycans was obtained using the relative peak area of the fluorescence signal. Almost all peaks were assigned to glycan structures according to their mass. Unknown glycan structures and signals without mass detection were summarized as unknown species (not shown). Four different clones of Chinese hamster ovary (CHO) cells expressing three different monoclonal antibodies (mAb) and a fusion protein were tested. […] The known positive control achieved a […] level on day 12 by increasing the afucosylation to 78%. The same amount of afucosylation compared to the known fucose-analogue acetylated 2F-Fucose was only achieved by clone 3 expressing mAb3 leading to about […] on day 12 (FIG. 8 C). […]

Assay [2] concerns CHO cell line producing mAb2. In words: Glycosylation profile (UPLC-MS of released glycans) of mAb2 from fed-batch. Particulars: mAb2, 400 μM additive, day 12. The class given is cell-based, Chinese hamster. As for the experimental part:
as §1, §2, §3
Glycosylation profile on day 12 was visualized since harvest of recombinant produced proteins on day 12 is common. Quantification of the glycans was obtained using the relative peak area of the fluorescence signal. Almost all peaks were assigned to glycan structures according to their mass. Unknown glycan structures and signals without mass detection were summarized as unknown species (not shown). […]

Assay [3] relates to CHO cell line producing mAb3. In words: Glycosylation profile (UPLC-MS of released glycans) of mAb3 from fed-batch. As to conditions: mAb3, 400 μM additive. Format: cell-based, Chinese hamster. As for the experimental part: as §1, §2, §3, §4
Assay [4] deals with CHO cell line producing a fusion protein. The assay is described as follows: Glycosylation profile (UPLC-MS of released glycans) of fusion protein from fed-batch. The class given is cell-based, Chinese hamster. Particulars: 400 μM additive, day 12. The method, then: as §1, §2, §3
Glycosylation profile on day 12 was visualized since harvest of recombinant produced proteins on day 12 is common. Quantification of the glycans was obtained using the relative peak area of the fluorescence signal. Almost all peaks were assigned to glycan structures according to their mass. Unknown glycan structures and signals without mass detection were summarized as unknown species (not shown). Four different clones of Chinese hamster ovary (CHO) cells expressing three different monoclonal antibodies (mAb) and a fusion protein were tested. […] The known positive control achieved a 14% fucosylation level on day 12 by increasing the afucosylation to 78%. The same amount of afucosylation compared to the known fucose-analogue acetylated 2F-Fucose was only achieved by clone 3 expressing mAb3 leading to about 34% afucosylation on day 12 (FIG. 8 C).

The next assay has as its system FcγRIIIa V176. In words: Surface plasmon resonance (Biacore) binding of mAb3 from treated cultures to FcγRIIIa. Particulars: for Fold change (affinity vs control): mAb3, 400 μM additive; for Kd: mAb3 from culture fed with 400 μM additive. As for the experimental part: Binding of samples after 5-ThioFuc treatment was investigated by surface plasmon resonance technology using a Biacore T200 system (GE Healthcare, Uppsala, Sweden). The analysis temperature was set to 25° C. and sample compartment temperature to 15° C. […] The anti-His antibody was further used to capture His-tagged FcγRIIIa V176 ([…]) from AcroBiosystems (Newark, Del., USA).
Binding was recorded continuously, while unspecific binding and injection artefacts were subtracted automatically. Single-cycle kinetics were used with a dissociation time of 600 s at a flow rate of 30 μL/min. Data collection rate was performed at 10 Hz. Following each experiment, both flow cells were regenerated for 30 s with 10 mM glycine-HCl pH 1.5 according to kit instructions. Data of three technical and two biological replicates were fitted with a 1:1 binding model. The global dissociation constant KD was determined from the ratio of the kinetic rate constants for dissociation (kd) and association (ka) values. Data are presented in Table 1 as fold change compared to the control.

For assay [5], the system named is CHO cell line producing mAb3. In words: Fed-batch cell performance (viable cell density), clone 3 producing mAb3. Format: cell-based, Chinese hamster. As to conditions: mAb3, feed with 400 μM additive. The method, then: Four different clones of Chinese hamster ovary (CHO) cells expressing three different monoclonal antibodies (mAb) and a fusion protein were tested. Cells were cultivated in spin tubes between 14 and 20 days at 37° C., 5% CO2, and 80% humidity. As starting cell density, 3×10^5 cells/mL in 30 mL Cellvento®4CHO media (pH 7.0±0.1) was used for clone 1 and 2 producing mAb1 and mAb2, respectively (Cellvento® Platform). Cells were cultivated at an agitation rate of 320 rpm and were fed on day 3, 5, 10, 12 and 14 with 3% volume of Cellvento® 4Feed (v/v) and on day 7 with 6% (v/v) of the feed. Clone 3 and 4 producing mAb3 and a fusion protein were inoculated at the same cell density in 30 mL Ex-Cell® Advanced Media (pH 7.2±0.1) while agitation was set to 230 rpm. Clones 3 and 4 were fed with 5% Ex-Cell® Advanced Feed (v/v) on day 3, 5, 7, 10, 12, 14 and 17. […]
The glucose level was maintained above 4 g/L by adding a specific amount of a 400 g/L glucose stock solution on demand to up to 6 g/L during the week and up to 13 g/L over the weekend. Glucose and titer were detected in the supernatant with the bioprocess analyzer CEDEX Bio HT (Roche, Mannheim, Germany) based on spectrophotometric and turbidometric methods. The viable cell density (VCD) and viability were evaluated with a Vi-CELL™ XR 2.04 cell counter (Beckman Coulter, Fullerton, Calif., USA). […]

Where [6] appears, read: day 12, listed as acetylated 2F-Fucose.

What is called Kd is the concentration at which binding is half-saturated. High values mean a looser complex, low ones a tighter complex. As to `CC(=O)OC1O[C@@H](C)[C@@H](OC(C)=O)[C@@H](OC(C)=O)[C@@H]1F` (stereo partly shown) [2F-Peracetylfucose, reference compound], the afucosylation is 60% in assay [1] (mAb1, 400 μM additive, day 12); 78% in assay [2]; 82% in assay [4]. In assay [1] (mAb1, 400 μM additive, day 12), the core-fucosylated glycans is recorded as 36%. Besides, the results for the “reduction of the fucosylation compared to the control” value in assay [1] (day 7), in assay [1] (day 10) and in assay [1] (day 12) were 11%, 50% and 58%, respectively. Besides, in assay [2], the core-fucosylation came to 14%. In addition, the “% Afucosylated” value is 14.9% in assay [3] (day 5); 34.2% in assay [3] (day 12, listed as 2F-PerAcFuc); “about 34%” in assay [3] (setting [6]); 40.9% in assay [3] (day 14). The “% fucose analogue (incorporated)” value in assay [3] (day 5) was 0.3%; in assay [3] (day 12), 0.2%; in assay [3] (day 14) it was 0.12%. Also, the “% Fucosylated” value in assay [3] (day 5, listed as 2F-PerAcFuc) was 83.9%; in assay [3] (day 5, listed as acetylated 2F-Fucose), “about 84%”; in assay [3] (day 12, listed as 2F-PerAcFuc) it was 64.8%; in assay [3] (setting [6]), 65%; in assay [3] (day 14, listed as 2F-PerAcFuc) it was 57.4%; in assay [3] (day 14, listed as acetylated 2F-Fucose) it was approximately 57%. Also, the fucosylation level entry is reported as “about 78%” in assay [3] (day 7) and approximately 72% in assay [3] (day 10). The “incorporation of fucose analogue (% of the glycans)” value in assay [4] is recorded as “without detectable incorporation”. The “Fold change (affinity vs control)” value in the assay on FcγRIIIa V176 (day 5) was found to be 1.3 fold; in the assay on FcγRIIIa V176 (day 12) it was 3.6 fold; in the assay on FcγRIIIa V176 (day 14), 4.4 fold. Further, the dissociation constant Kd worked out at 78 nM on FcγRIIIa V176 (day 5), 34 nM at FcγRIIIa V176 (day 12) and 23 nM on FcγRIIIa V176 (day 14).

Turning to acetylated 5-Thio-L-Fucose, in assay [5], the “reduced VCD (area under the curve until day 17, compared to the control)” value was approximately 24%. Moreover, in assay [1] (mAb1, 200 μM additive), the fucosylation level worked out at 46% and the “incorporation of the fucose-analogue” value worked out at 50%. In addition, in assay [1] (mAb1, 400 μM additive, day 12), the core-fucosylated glycans entry is “about 26%” and the “incorporation of fucose analogue (% of the glycans)” value was “about 70%”. In assay [1] (mAb1, 400 μM additive), the fucosylation level is recorded as 16% and the “incorporation of the fucose-analogue” value is recorded as 81%. Further, in assay [1] (mAb1, 800 μM additive), the fucosylation level was 9% and the “incorporation of the fucose-analogue” value came out at 87%. The core-fucosylation in assay [2] is 8%. For the same compound, in assay [4], the afucosylation was 52%, the “incorporation of fucose analogue (% of the glycans)” value was 39% and the “reduction of core-fucosylation compared to the control” value is recorded as “about 63%”.
